Assay results published in PubChem BioAssay AID2060623 (Molecular Pharmacology Branch, DTP, NCI, 2025).

System: 227483-062-R1-J1-PDC complex spheroids with HUVEC/MSC, viability
Test: Anticancer human tumor 227483-062-R1-J1-PDC patient-derived pancreatic carcinoma cell line growth inhibition [CLK]
Conditions: for IC50: curve of first compound; for viability, T/C: stronger effect = lower value
Method in brief: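 Patient-derived tumor cells grown as complex spheroids with HUVEC endothelial cells and mesenchymal stem cells, treated with drug combinations. Concentrations descend in half-log steps from near clinical Cmax, or from 10 microM if Cmax unknown.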

[1] = second compound 0.0316 µM, first compound 0.0316 µM
[2] = second compound 0.0316 µM, first compound 0.1 µM
[3] = second compound 0.0316 µM, first compound 0.316 µM
[4] = second compound 0.0316 µM, first compound 1 µM
[5] = second compound 0.0316 µM, first compound 3.16 µM
[6] = second compound 0.0316 µM, first compound 10 µM
[7] = second compound 0.1 µM, first compound 0.0316 µM
[8] = second compound 0.1 µM, first compound 0.1 µM
[9] = second compound 0.1 µM, first compound 0.316 µM
[10] = second compound 0.1 µM, first compound 1 µM
[11] = second compound 0.1 µM, first compound 3.16 µM
[12] = second compound 0.1 µM, first compound 10 µM
[13] = second compound 0.316 µM, first compound 0.0316 µM
[14] = second compound 0.316 µM, first compound 0.1 µM
[15] = second compound 0.316 µM, first compound 0.316 µM
[16] = second compound 0.316 µM, first compound 1 µM
[17] = second compound 0.316 µM, first compound 3.16 µM
[18] = second compound 0.316 µM, first compound 10 µM
[19] = second compound 1 µM, first compound 0.0316 µM
[20] = second compound 1 µM, first compound 0.1 µM
[21] = second compound 1 µM, first compound 0.316 µM
[22] = second compound 1 µM, first compound 1 µM
[23] = second compound 1 µM, first compound 3.16 µM
[24] = second compound 1 µM, first compound 10 µM
[25] = second compound 3.16 µM, first compound 0.0316 µM
[26] = second compound 3.16 µM, first compound 0.1 µM
[27] = second compound 3.16 µM, first compound 0.316 µM
[28] = second compound 3.16 µM, first compound 1 µM
[29] = second compound 3.16 µM, first compound 3.16 µM
[30] = second compound 3.16 µM, first compound 10 µM
[31] = second compound 10 µM, first compound 0.0316 µM
[32] = second compound 10 µM, first compound 0.1 µM
[33] = second compound 10 µM, first compound 0.316 µM
[34] = second compound 10 µM, first compound 1 µM
[35] = second compound 10 µM, first compound 3.16 µM
[36] = second compound 10 µM, first compound 10 µM
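Also: spheroids exposed to compounds for seven days before readout.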
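For viability, T/C in this document: percent of DMSO vehicle control luminescence as 100% viability.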

CC(=O)O[C@H]1C(=O)[C@@]2(C)[C@H]([C@H](OC(=O)c3ccccc3)[C@]3(O)C[C@H](OC(=O)[C@H](O)[C@@H](NC(=O)c4ccccc4)c4ccccc4)C(C)=C1C3(C)C)[C@]1(OC(C)=O)CO[C@@H]1C[C@@H]2O + CNC(=O)c1ccc(Nc2nc(OC3CCCC3)c3c(-c4ccc5nc(C)oc5c4)c[nH]c3n2)c(OC)c1
IC50 (second compound 0.0316 µM): < 0.0316 µM | IC50 (second compound 0.1 µM): > 10 µM | IC50 (second compound 0.316 µM): > 10 µM | IC50 (second compound 1 µM): > 10 µM | IC50 (second compound 3.16 µM): < 0.0316 µM | IC50 (second compound 10 µM): < 0.0316 µM | viability, T/C [1]: 29.7% | viability, T/C [2]: 27.1% | viability, T/C [3]: 35.6% | viability, T/C [4]: 43.4% | viability, T/C [5]: 48.3% | viability, T/C [6]: 75.9% | viability, T/C [7]: 53.8% | viability, T/C [8]: 62.1% | viability, T/C [9]: 71.1% | viability, T/C [10]: 85.1% | viability, T/C [11]: 77.1% | viability, T/C [12]: 101% | viability, T/C [13]: 70.4% | viability, T/C [14]: 95.6% | viability, T/C [15]: 98.9% | viability, T/C [16]: 101% | viability, T/C [17]: 99.3% | viability, T/C [18]: 95.8% | viability, T/C [19]: 60.8% | viability, T/C [20]: 69.2% | viability, T/C [21]: 72.7% | viability, T/C [22]: 101% | viability, T/C [23]: 96.7% | viability, T/C [24]: 89.4% | viability, T/C [25]: 46.7% | viability, T/C [26]: 58.9% | viability, T/C [27]: 62.9% | viability, T/C [28]: 61.5% | viability, T/C [29]: 70.1% | viability, T/C [30]: 54.6% | viability, T/C [31]: 37.9% | viability, T/C [32]: 49.9% | viability, T/C [33]: 50.3% | viability, T/C [34]: 61.4% | viability, T/C [35]: 49.5% | viability, T/C [36]: 55.5%

CC(Nc1ccc2c(c1)OCCn1cc(N3C(=O)OCC3C(F)F)nc1-2)C(N)=O (stereo unspecified) + CN1CCN(c2cc(C(=O)Nc3cc4cc(-c5cnn(C)c5)ccc4cn3)ccn2)CC1
IC50 (second compound 0.0316 µM): > 10 µM | IC50 (second compound 0.1 µM): 0.248 µM | IC50 (second compound 0.316 µM): < 0.0316 µM | IC50 (second compound 1 µM): < 0.0316 µM | IC50 (second compound 3.16 µM): < 0.0316 µM | IC50 (second compound 10 µM): < 0.0316 µM | viability, T/C [1]: 108% | viability, T/C [2]: 81.5% | viability, T/C [3]: 70% | viability, T/C [4]: 77.8% | viability, T/C [5]: 63% | viability, T/C [6]: 66.1% | viability, T/C [7]: 72.6% | viability, T/C [8]: 60.6% | viability, T/C [9]: 47.2% | viability, T/C [10]: 45.7% | viability, T/C [11]: 48.7% | viability, T/C [12]: 44.8% | viability, T/C [13]: 7.83% | viability, T/C [14]: 6.06% | viability, T/C [15]: 6.08% | viability, T/C [16]: 6.51% | viability, T/C [17]: 6.66% | viability, T/C [18]: 5.69% | viability, T/C [19]: 3.5% | viability, T/C [20]: 1.22% | viability, T/C [21]: 1.34% | viability, T/C [22]: 1.35% | viability, T/C [23]: 2.69% | viability, T/C [24]: 2.57% | viability, T/C [25]: 5.8% | viability, T/C [26]: 3.43% | viability, T/C [27]: 2.3% | viability, T/C [28]: 2.9% | viability, T/C [29]: 2.51% | viability, T/C [30]: 2.34% | viability, T/C [31]: 2.26% | viability, T/C [32]: 2.36% | viability, T/C [33]: 2.91% | viability, T/C [34]: 1.47% | viability, T/C [35]: 1.7% | viability, T/C [36]: 3.3%

C=C(F)C(=O)N1CCN(c2nc(OCC3CCCN3C)nc3c2CCN(c2cccc4cccc(Cl)c24)C3)CC1CC#N (stereo unspecified) + CNC(=O)c1ccc(Nc2nc(OC3CCCC3)c3c(-c4ccc5nc(C)oc5c4)c[nH]c3n2)c(OC)c1
IC50 (second compound 0.0316 µM): 5.41 µM | IC50 (second compound 0.1 µM): 5.79 µM | IC50 (second compound 0.316 µM): 5.82 µM | IC50 (second compound 1 µM): 3.78 µM | IC50 (second compound 3.16 µM): 0.169 µM | IC50 (second compound 10 µM): < 0.0316 µM | viability, T/C [1]: 116% | viability, T/C [2]: 98% | viability, T/C [3]: 117% | viability, T/C [4]: 121% | viability, T/C [5]: 83.9% | viability, T/C [6]: 11.4% | viability, T/C [7]: 113% | viability, T/C [8]: 118% | viability, T/C [9]: 93.7% | viability, T/C [10]: 103% | viability, T/C [11]: 96.5% | viability, T/C [12]: 8.35% | viability, T/C [13]: 95.9% | viability, T/C [14]: 84.2% | viability, T/C [15]: 101% | viability, T/C [16]: 102% | viability, T/C [17]: 130% | viability, T/C [18]: 3.32% | viability, T/C [19]: 79.6% | viability, T/C [20]: 57.4% | viability, T/C [21]: 67.7% | viability, T/C [22]: 69% | viability, T/C [23]: 58.8% | viability, T/C [24]: 0.65% | viability, T/C [25]: 52.3% | viability, T/C [26]: 47.2% | viability, T/C [27]: 51.9% | viability, T/C [28]: 41.6% | viability, T/C [29]: 22% | viability, T/C [30]: 0.26% | viability, T/C [31]: 42.4% | viability, T/C [32]: 43.3% | viability, T/C [33]: 40.3% | viability, T/C [34]: 29% | viability, T/C [35]: 16.1% | viability, T/C [36]: 0.39%
